Assay [1] deals with HIV Env-mediated cell fusion. Nature of the assay: vaccinia virus-based reporter gene assay of HIV Env-mediated cell fusion (B-SC-1 target and effector cells, soluble CD4). On the set-up: species or system HIV-1. Conditions: relative to both N35CCG-N13 and NCCG-gp41. In general terms: Reporter assays use an easily measured gene product as a stand-in for the process of interest.

Assay [2] addresses HIV-1 (LAV) Env protein on effector cells (gp120/gp41; gp41 pre-hairpin fusion intermediate) (HIV-1 (LAV)) (UniProt P03377). The experiment in a line: cell-based or functional assay.
The next assay deals with HIV-1 Env. Conditions: from Ferrer et al., Nature Struct. Biol. 1999, given for comparison; read-out: IC50, fusion inhibitory activity; cited from earlier work.
For assay [3], the target named is HIV-1 (LAV) Env protein on effector cells (gp120/gp41; gp41 pre-hairpin fusion intermediate) (HIV-1 (LAV), UniProt P03377 517-861). The experiment in a line: cell-based or functional assay.

For “N34CCG (MGSSHHHHHHSSGLVPRGSHMSGIVQQQNNLLRAIEAQQHLLQLTVWGIKQCCGR)”, the “fold lower inhibitory activity” value in assay [1] is reported as 5-6 fold.

On to “N36 peptide (residues 546-581 of HIV-1 Env) (from UniProt P04578 546-581)”, for which the IC50, inhibition of HIV-1 Env-mediated cell fusion (vaccinia reporter gene assay, beta-galactosidase) in assay [2] amounted to 16400 nM.

A word on the IC50: it is the point on the concentration scale where inhibition reaches its midpoint. For the molecule enfuvirtide, the IC50 in the assay with HIV-1 Env is about 50 nM.

B1: 6H-N34CCG, disulfide-linked trimer (designed binder)
chain: MGSSHHHHHHSSGLVPRGSHMSGIVQQQNNLLRAIEAQQHLLQLTVWGIKQCCGR
On to B1, for which the “IC50, inhibition of HIV Env-mediated cell fusion (vaccinia reporter gene assay, beta-galactosidase)” value in assay [3] is 96 nM.
